Test results taken from article PMC9299836 (eLife, 2022).

Molecular target: mGluR2 (Mus musculus, UniProt Q14BI2, A548F)
Assay: smFRET of azi-CRD: cross-correlation of donor and acceptor intensities (CRD dynamics) and HMM transition density plots;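 further: single detergent-solubilized receptors captured on antibody-coated flow cells via C-terminal FLAG-tag, imaged by smFRET, donor and acceptor intensity traces from three independent biological replicates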

Chain of mGluR2 (Q14BI2 19-872 A548F): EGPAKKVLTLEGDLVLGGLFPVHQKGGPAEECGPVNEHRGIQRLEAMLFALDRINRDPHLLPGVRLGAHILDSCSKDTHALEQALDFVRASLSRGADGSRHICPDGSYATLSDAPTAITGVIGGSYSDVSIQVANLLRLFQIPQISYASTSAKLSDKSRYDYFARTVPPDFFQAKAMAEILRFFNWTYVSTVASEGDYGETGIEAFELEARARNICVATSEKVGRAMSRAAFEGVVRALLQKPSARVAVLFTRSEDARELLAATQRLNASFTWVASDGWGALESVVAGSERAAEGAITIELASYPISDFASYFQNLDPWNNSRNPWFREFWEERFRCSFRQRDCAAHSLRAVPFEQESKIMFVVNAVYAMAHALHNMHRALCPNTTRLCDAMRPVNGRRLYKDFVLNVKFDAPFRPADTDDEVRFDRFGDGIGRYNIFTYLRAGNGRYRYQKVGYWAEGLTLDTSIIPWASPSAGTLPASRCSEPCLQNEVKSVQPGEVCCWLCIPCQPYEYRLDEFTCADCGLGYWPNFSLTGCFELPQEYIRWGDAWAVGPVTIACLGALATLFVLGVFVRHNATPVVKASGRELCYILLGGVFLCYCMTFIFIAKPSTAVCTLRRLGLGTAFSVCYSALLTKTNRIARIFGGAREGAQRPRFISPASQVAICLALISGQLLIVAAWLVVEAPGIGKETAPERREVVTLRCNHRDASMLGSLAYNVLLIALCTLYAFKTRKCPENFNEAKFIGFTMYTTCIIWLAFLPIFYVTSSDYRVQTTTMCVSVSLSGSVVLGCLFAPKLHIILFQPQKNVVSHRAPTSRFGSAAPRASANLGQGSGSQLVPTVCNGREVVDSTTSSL

Cross Correlation, Mean (0μM Glutamate + GPT/Pyruvate + 10μM BINA, Time 2.3 s, N 3): -0.01949 | Cross Correlation, Mean (0μM Glutamate + GPT/Pyruvate + 10μM BINA, Time 2.35 s, N 3): -0.01229 | Cross Correlation, Mean (0μM Glutamate + GPT/Pyruvate + 10μM BINA, Time 2.4 s, N 3): -0.01405 | Cross Correlation, Mean (0μM Glutamate + GPT/Pyruvate + 10μM BINA, Time 2.45 s, N 3): -0.01492 | Cross Correlation, Mean (0μM Glutamate + GPT/Pyruvate + 10μM BINA, Time 2.5 s, N 3): -0.01729 | Cross Correlation, Mean (0μM Glutamate + GPT/Pyruvate + 10μM BINA, Time 2.55 s, N 3): -0.01573 | Cross Correlation, Mean (0μM Glutamate + GPT/Pyruvate + 10μM BINA, Time 2.6 s, N 3): -0.01304 | Cross Correlation, Mean (0μM Glutamate + GPT/Pyruvate + 10μM BINA, Time 2.65 s, N 3): -0.01522 | Cross Correlation, Mean (0μM Glutamate + GPT/Pyruvate + 10μM BINA, Time 2.7 s, N 3): -0.01589 | Cross Correlation, Mean (0μM Glutamate + GPT/Pyruvate + 10μM BINA, Time 2.75 s, N 3): -0.00863 | Cross Correlation, Mean (0μM Glutamate + GPT/Pyruvate + 10μM BINA, Time 2.8 s, N 3): -0.00835 | Cross Correlation, Mean (0μM Glutamate + GPT/Pyruvate + 10μM BINA, Time 2.85 s, N 3): -0.01318 | Cross Correlation, Mean (0μM Glutamate + GPT/Pyruvate + 10μM BINA, Time 2.9 s, N 3): -0.01103 | Cross Correlation, Mean (0μM Glutamate + GPT/Pyruvate + 10μM BINA, Time 2.95 s, N 3): -0.01389 | Cross Correlation, Mean (Time 0.2 s, 1000μM Glutamate + 10μM BINA, N=3): -0.07372 | Cross Correlation, Mean (Time 0.25 s, 1000μM Glutamate + 10μM BINA, N=3): -0.0658 | Cross Correlation, Mean (Time 0.3 s, 1000μM Glutamate + 10μM BINA, N=3): -0.06773 | Cross Correlation, Mean (Time 0.35 s, 1000μM Glutamate + 10μM BINA, N=3): -0.06255 | Cross Correlation, Mean (Time 0.4 s, 1000μM Glutamate + 10μM BINA, N=3): -0.05489 | Cross Correlation, Mean (Time 0.45 s, 1000μM Glutamate + 10μM BINA, N=3): -0.05062 | Cross Correlation, Mean (Time 0.5 s, 1000μM Glutamate + 10μM BINA, N=3): -0.04608 | Cross Correlation, Mean (Time 0.55 s, 1000μM Glutamate + 10μM BINA, N=3): -0.05414 | Cross Correlation, Mean (Time 0.6 s, 1000μM Glutamate + 10μM BINA, N=3): -0.0452 | Cross Correlation, Mean (Time 0.65 s, 1000μM Glutamate + 10μM BINA, N=3): -0.04488 | Cross Correlation, Mean (Time 0.7 s, 1000μM Glutamate + 10μM BINA, N=3): -0.04657 | Cross Correlation, Mean (Time 0.75 s, 1000μM Glutamate + 10μM BINA, N=3): -0.03909 | Cross Correlation, Mean (Time 0.8 s, 1000μM Glutamate + 10μM BINA, N=3): -0.03858 | Cross Correlation, Mean (Time 0.85 s, 1000μM Glutamate + 10μM BINA, N=3): -0.03795 | Cross Correlation, Mean (Time 0.9 s, 1000μM Glutamate + 10μM BINA, N=3): -0.04083 | Cross Correlation, Mean (Time 0.95 s, 1000μM Glutamate + 10μM BINA, N=3): -0.04226 | Cross Correlation, Mean (Time 1 s, 1000μM Glutamate + 10μM BINA, N=3): -0.03681 | Cross Correlation, Mean (Time 1.05 s, 1000μM Glutamate + 10μM BINA, N=3): -0.03546 | Cross Correlation, Mean (Time 1.1 s, 1000μM Glutamate + 10μM BINA, N=3): -0.03003 | Cross Correlation, Mean (Time 1.15 s, 1000μM Glutamate + 10μM BINA, N=3): -0.02551 | Cross Correlation, Mean (Time 1.2 s, 1000μM Glutamate + 10μM BINA, N=3): -0.0316 | Cross Correlation, Mean (Time 1.25 s, 1000μM Glutamate + 10μM BINA, N=3): -0.02716 | Cross Correlation, Mean (Time 1.3 s, 1000μM Glutamate + 10μM BINA, N=3): -0.03167 | Cross Correlation, Mean (Time 1.35 s, 1000μM Glutamate + 10μM BINA, N=3): -0.03105 | Cross Correlation, Mean (Time 1.4 s, 1000μM Glutamate + 10μM BINA, N=3): -0.03283 | Cross Correlation, Mean (Time 1.45 s, 1000μM Glutamate + 10μM BINA, N=3): -0.03008 | Cross Correlation, Mean (Time 1.5 s, 1000μM Glutamate + 10μM BINA, N=3): -0.02156 | Cross Correlation, Mean (Time 1.55 s, 1000μM Glutamate + 10μM BINA, N=3): -0.02279 | Cross Correlation, Mean (Time 1.6 s, 1000μM Glutamate + 10μM BINA, N=3): -0.0244 | Cross Correlation, Mean (Time 1.65 s, 1000μM Glutamate + 10μM BINA, N=3): -0.02489 | Cross Correlation, Mean (Time 1.7 s, 1000μM Glutamate + 10μM BINA, N=3): -0.02216 | Cross Correlation, Mean (Time 1.75 s, 1000μM Glutamate + 10μM BINA, N=3): -0.02536 | Cross Correlation, Mean (Time 1.8 s, 1000μM Glutamate + 10μM BINA, N=3): -0.02663 | Cross Correlation, Mean (Time 1.85 s, 1000μM Glutamate + 10μM BINA, N=3): -0.0191 | Cross Correlation, Mean (Time 1.9 s, 1000μM Glutamate + 10μM BINA, N=3): -0.02267 | Cross Correlation, Mean (Time 1.95 s, 1000μM Glutamate + 10μM BINA, N=3): -0.02058 | Cross Correlation, Mean (Time 2 s, 1000μM Glutamate + 10μM BINA, N=3): -0.01998 | Cross Correlation, Mean (Time 2.05 s, 1000μM Glutamate + 10μM BINA, N=3): -0.02099 | Cross Correlation, Mean (Time 2.1 s, 1000μM Glutamate + 10μM BINA, N=3): -0.01699 | Cross Correlation, Mean (Time 2.15 s, 1000μM Glutamate + 10μM BINA, N=3): -0.01762 | CRD dynamics by cross-correlation of donor and acceptor intensities (azi-CRD, 10 μM modulator, absence of glutamate): increased receptor dynamics
Compound: Cc1c(OCc2cccc(-c3ccc(C(=O)O)cc3)c2)cc2c(c1C)C(=O)C(C1CCCC1)C2 (stereo not shown) [BINA]
